The values below come from publication PMC7464559, “Synthesis, Optimization, Antifungal Activity, Selectivity, and CYP51 Binding of New 2-Aryl-3-azolyl-1-indolyl-propan-2-ols” (Pharmaceuticals, 2020).

In one data set the test system is C. albicans CA98001. Description: Anti-Candida in vitro assay (Alamar Blue), C. albicans CA98001. It counts as cell-based. The settings on record: Candida albicans, CA98001, 24 h, MIC = IC80, 24 h at 37 °C, mean of triplicate. Here is the method: (§1) Test fungal strains were obtained from the American Type Culture Collection (ATCC) or were clinical isolates from the Laboratory of Parasitology and Medical Mycology, Centre Hospitalier Universitaire (CHU) of Nantes. The strains were maintained on Sabouraud agar slants and were subcultured 24 h before used. The activity of the target compounds 8a–g and 11a–m was determined by the method previously described. Briefly, molecules were diluted in RPMI 1640 medium supplemented with 0.165 M morpholinopropanesulphonic acid (Sigma-Aldrich, Saint-Quentin Fallavier, France), 2% glucose, and antibiotics. Candida suspensions were prepared in RPMI 1640 medium (Sigma-Aldrich, Saint-Quentin Fallavier, France) adjusted to give a final concentration of 10^3 cells/mL, and a 96-well microplate (Nunc, D. Dutscher, Brumath, France) was seeded with 100 µL. Each concentration of molecules (100 µL) to be tested was added (in triplicate) and plates were incubated at 37 °C for 24 h. The cellular viability was evaluated on the Fluorolite 1000 (Dynatech, France) with an excitation at 550 nm and an emission at 590 nm after a 4 h incubation with 10 µL of Alamar Blue®. […] MIC was expressed as the mean of the triplicate values. KTC and FLC were used as standards.

In data set [1] the test system is ATCC2091 Candida albicans strain. Description: Anti-Candida in vitro assay, ATCC2091. The settings on record: Candida albicans ATCC2091, mean of triplicate; read-out: MIC (IC80) ATCC2091. It counts as cell-based. Here is the method:
as §1

Data set [2] has as its system CA98002 (Candida albicans). Description: Anti-Candida in vitro assay, CA98002. It counts as cell-based. The settings on record: Candida albicans CA98002, mean of triplicate; read-out: MIC (IC80) CA98002. Here is the method:
as §1

The test system of data set [3] is CA98005 (Candida albicans). Description: Anti-Candida in vitro assay, CA98005. It counts as cell-based. To be noted: Candida albicans CA98005, mean of triplicate; read-out: MIC (IC80) CA98005. How it is done:
as §1

Data set [4] concerns ATCC6258 Candida krusei strain. Description: Anti-Candida in vitro assay, ATCC6258. The data set is classed as cell-based. To be noted: Pichia kudriavzevii; Candida krusei ATCC6258, mean of triplicate; read-out: MIC (IC80) ATCC6258. How it is done:
as §1

The test system of another data set is CK98002 (Candida krusei). Put plainly: Anti-Candida in vitro assay, CK98002. The data set is classed as cell-based. The settings on record: Pichia kudriavzevii; Candida krusei CK98002, mean of triplicate; read-out: MIC (IC80) CK98002. How it is done:
as §1

A further data set relates to CK98003 (Candida krusei). Description: Anti-Candida in vitro assay, CK98003. To be noted: Pichia kudriavzevii; Candida krusei CK98003, mean of triplicate; read-out: MIC (IC80) CK98003. The data set is classed as cell-based. Here is the method:
as §1

Data set [5] concerns CL98001 (Candida lusitaniae). Put plainly: Anti-Candida in vitro assay, CL98001. The data set is classed as cell-based. To be noted: Clavispora lusitaniae; Candida lusitaniae CL98001, mean of triplicate; read-out: MIC (IC80) CL98001. Here is the method: as §1
Data set [6] relates to ATCC90018 Candida parapsilosis strain. Put plainly: Anti-Candida in vitro assay, ATCC90018. The data set is classed as cell-based. To be noted: Lodderomyces parapsilosis; Candida parapsilosis ATCC90018, mean of triplicate; read-out: MIC (IC80) ATCC90018. Here is the method:
as §1

A short description of a further data set: MRC5 toxicity assay. It counts as cell-based, human. The settings on record: human, MRC-5 human fetal lung fibroblast cells, MRC-5 cells, 96-h incubation, mean of triplicate; read-out: Cytotoxicity IC50 on MRC-5 cells. How it is done:
The cytotoxicity of compounds was studied with human fibroblast (MRC5). Cells were grown in RPMI 1640 medium (Sigma-Aldrich, Saint-Quentin Fallavier, France) supplemented with 10% fetal bovin serum (Sigma–Aldrich). Drugs were tested at three concentrations (100, 10, and 1 µM) in triplicate. After a 96-h incubation time, cytotoxicity was measured on the Fluorolite 1000 (Dynatech, Guyancourt, France) after a 4-h incubation time with Uptiblue® (Interchim, Montluçon, France). Inhibitory concentration 50 is a mean of triplicate values. A toxicity index was determined as follow: IC50 against MRC5/Geometric mean of the MICs against Candida spp..

Data set [7] concerns the target T1, 17α-hydroxylase/17,20-lyase (CYP17) (Homo sapiens, UniProt P05093).
T1 sequence (P05093 1-508): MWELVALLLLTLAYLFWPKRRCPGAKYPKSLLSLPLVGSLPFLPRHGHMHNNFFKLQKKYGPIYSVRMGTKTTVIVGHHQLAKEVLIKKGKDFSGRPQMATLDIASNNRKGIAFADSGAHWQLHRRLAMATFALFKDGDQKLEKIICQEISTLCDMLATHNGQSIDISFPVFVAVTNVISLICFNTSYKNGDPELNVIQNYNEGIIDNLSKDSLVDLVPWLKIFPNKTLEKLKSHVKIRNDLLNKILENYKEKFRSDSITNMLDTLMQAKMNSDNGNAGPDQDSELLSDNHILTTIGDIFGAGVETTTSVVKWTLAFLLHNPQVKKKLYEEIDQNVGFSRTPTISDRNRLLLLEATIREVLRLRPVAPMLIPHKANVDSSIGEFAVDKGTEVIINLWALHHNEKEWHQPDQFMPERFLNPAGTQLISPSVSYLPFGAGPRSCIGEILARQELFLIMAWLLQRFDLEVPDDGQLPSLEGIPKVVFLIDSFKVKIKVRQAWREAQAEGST
Put plainly: In vitro inhibition of 17α-hydroxylase/17,20-lyase. The data set is classed as biochemical. The settings on record: mean of two experiments in duplicate.
Procedure: The assay was performed similar to described methods [29, 52]. […] Microsomal protein was added to start the reaction. […] After the addition of 1 mL EtOAc, the vials were shaken then centrifuged. The organic phase was removed, vortexed with phosphate buffer (250 µL), 1 M aqueous HCl (50 µL), and then dried. Aliquots of 25 µL methanol, containing 250 pmol of fluorocortisol acetate as internal standard, were added to the extracts. The samples (20 µL) were submitted to HPLC (RP-8 column, methanol/water 1:1, v/v) and measured using UV (240 nm).

≈ marks a conversion by molar mass, not a printed value. A value given as a limit tells only on which side of the number the result lay.

By MIC is commonly meant the least concentration at which growth counts as inhibited. As usually defined, the IC50 is the concentration at which inhibition is half-maximal. Broadly, the melting point is the temperature of the solid-liquid transition. The compound `OC(Cn1ccnc1)(Cn1ccc2ccccc21)c1ccc(Br)cc1` (stereo not drawn) [Compound 8c, 2-(4-Bromophenyl)-1-(1H-imidazol-1-yl)-3-(1H-indol-1-yl)propan-2-ol] yielded a melting point of 134 to 135 °C. In addition, the MIC against C. albicans CA98001 is 0.02 µg/mL (≈ 0.0505 µM). Moreover, the MIC in [1] stood at 0.357 µg/mL (≈ 0.901 µM). Moreover, the MIC in data set [2] was found to be 0.25 µg/mL (≈ 0.631 µM). In addition, the MIC in [3] is 0.21 µg/mL (≈ 0.53 µM). Moreover, the MIC in data set [4] was over 39.6 µg/mL. Moreover, the MIC with CK98002 (Candida krusei) stood at 5.08 µg/mL (≈ 12.8 µM). Moreover, in the data set with CK98003 (Candida krusei), the MIC was 36.6 µg/mL (≈ 92.3 µM). For the same compound, the MIC in data set [5] came out at 0.25 µg/mL (≈ 0.631 µM). Also, in data set [6], the MIC was 1.84 µg/mL (≈ 4.64 µM). The IC50 at 96 h in the data set “MRC5 toxicity assay” is 31 µM.
`OC(Cn1ccnc1)(Cn1ccc2ccccc21)c1ccc(Cl)cc1` (stereo not drawn) [Compound 8b, 2-(4-Chlorophenyl)-1-(1H-imidazol-1-yl)-3-(1H-indol-1-yl)propan-2-ol] came in with a melting point of 201 to 202 °C. Moreover, the minimum inhibitory concentration (MIC) against C. albicans CA98001 is 0.02 µg/mL (≈ 0.0568 µM). Also, in data set [1], the MIC came to 0.215 µg/mL (≈ 0.611 µM). Moreover, the MIC in data set [2] is 0.165 µg/mL (≈ 0.469 µM). For the same compound, the MIC in data set [3] was 0.106 µg/mL (≈ 0.301 µM). Further, in data set [4], the MIC is over 35.2 µg/mL. The MIC in the data set with CK98002 (Candida krusei) was found to be 2.72 µg/mL (≈ 7.74 µM). Moreover, the MIC in the data set on CK98003 (Candida krusei) was over 35.2 µg/mL. In data set [5], the MIC was determined as 0.222 µg/mL (≈ 0.631 µM). For the same compound, the MIC in [6] turned out to be 1.3 µg/mL (≈ 3.69 µM). Moreover, the IC50 at 96 h in “MRC5 toxicity assay” came out at 37 µM.
`OC(Cn1cncn1)(Cn1ccc2ccccc21)c1ccc(C(F)(F)F)cc1` (stereo not drawn) [Compound 8f, 1-(1H-Indol-1-yl)-3-(1,2,4-1H-triazol-1-yl)-2-(4-trifluoromethyl-phenyl)propan-2-ol] displayed a melting point of 165 to 168 °C. This compound also had an MIC in the data set with C. albicans CA98001 of 0.009 µg/mL (≈ 0.0233 µM). Also, the MIC in [1] worked out at 0.247 µg/mL (≈ 0.639 µM). In data set [2], the MIC was 0.233 µg/mL (≈ 0.603 µM). Also, in [3], the MIC was 0.749 µg/mL (≈ 1.94 µM). In addition, the MIC in data set [4] amounted to 19.1 µg/mL (≈ 49.4 µM). In addition, the MIC in the data set on CK98002 (Candida krusei) stood at 10.6 µg/mL (≈ 27.3 µM). The MIC with CK98003 (Candida krusei) was 3.07 µg/mL (≈ 7.94 µM). The MIC in [5] stood at 0.199 µg/mL (≈ 0.515 µM). Besides, in [6], the MIC was 2 µg/mL (≈ 5.18 µM). For the same compound, the IC50 at 96 h in the data set “MRC5 toxicity assay” amounted to 76 µM.
The compound `OC(Cn1ccnc1)(Cn1ccc2ccccc21)c1ccc(C(F)(F)F)cc1` (stereo not drawn) [Compound 11e, 1-(1H-Imidazol-1-yl)-3-(1H-indol-1-yl)-2-(4-trifluoromethylphenyl)propan-2-ol] registered a melting point of 246 to 247 °C. The same compound yielded an MIC against C. albicans CA98001 of 0.23 µg/mL (≈ 0.597 µM). The MIC in [1] came out at 2.12 µg/mL (≈ 5.5 µM). The MIC in data set [2] worked out at 0.32 µg/mL (≈ 0.83 µM). Moreover, the MIC in data set [3] was found to be 0.258 µg/mL (≈ 0.669 µM). For the same compound, the MIC in [4] turned out to be 22.1 µg/mL (≈ 57.4 µM). Also, the MIC in the data set on CK98002 (Candida krusei) was 18.3 µg/mL (≈ 47.5 µM). Moreover, the MIC in the data set on CK98003 (Candida krusei) was determined as 16.2 µg/mL (≈ 42.1 µM). In addition, the MIC in [5] was determined as 0.173 µg/mL (≈ 0.449 µM). Moreover, the MIC in data set [6] came to 2.47 µg/mL (≈ 6.4 µM). Further, the IC50 at 96 h in “MRC5 toxicity assay” was 36 µM.
`N#Cc1ccc(C2CCCc3cncn32)cc1` (stereo not drawn) [fadrozole, reference compound]: the “CYP17 IC50” value in data set [7] was “not active”.
